Results as given in US11407744B2, “Compound and pharmaceutical composition comprising same” (AUTOPHAGYSCIENCES INC., priority 2018, dated 2022).

System: LC3-II production in Hep3B cells
Assay: Autophagy activation: degree of LC3-II production in Hep3B cells (Western blot band density)
Assay type: cell-based, human
Settings: 12 hours; for Autophagy-inducing capacity: amount of LC3-II increased by compound treatment relative to that of the Comparative Example (=1)
Description: The degree of autophagy activation of each compound was evaluated by measuring the degree of LC3-II production in Hep3B cells.
Specifically, Hep3B human hepatocytes were cultured in DMEM medium at 37° C. under 5% CO2 atmosphere. The respective cells were dispensed into 6-well plates at a density of 5×10^5 cells/well. These cells were treated with DMSO, the compound prepared in Examples described above, and the compound of Comparative Example, respectively, and then treated in DMEM medium at 37° C. under 5% CO2 atmosphere for 12 hours to induce autophagy. Subsequently, Hep3B cells were lysed with an extraction buffer containing protease inhibitor cocktail (PBS solution containing 0.5% Triton X-100, 1 mM Na3VO4, etc.), and then fragmentation of DNA was performed by sonication. The amount of protein was measured with bovine serum albumin as a protein standard using SMART™ BCA Protein Assay kit from iNtRON Biotechnology. After electrophoresis of 10˜50 μg of total cell protein in 8˜12% (w/v) polyacrylamide gel containing 0.1% SDS, the proteins present in a gel were transferred to PVDF membrane by an electroblotting technique. Then, in order to block non-specific binding, the PVDF membrane was placed in a TBS-tween (tris-buffered saline-tween, Sigma Co.) solution containing 5% non-fat dry milk and reacted at room temperature for 1 hour. The filter was placed in a TBS-tween solution containing a specific antibody against LC3 protein (Cell Signaling), allowed to stand at 4° C. for 12 hours, and then labeled with a secondary antibody labeled with HRP (Horseradish Peroxidase, Sigma Co., Cat No. P0889). Then, bands were measured using ECL (Enhanced Chemiluminescence, Thermo Scientific, Cat No. 34080).
The induction of autophagy can be confirmed by an increase in specific LC3-II molecules. LC3 precursors are usually scattered in the cytoplasm, proteolytically cleaved, and present in the form of LC3-I. When autophagy is activated, the C-terminal glycine is modified to form LC3-II, which migrates to autophagosome and is distributed in puncta form.
The amount of LC3-II increased by the compound treatment was quantified by measuring the band density, and then compared with the amount of LC3-II increased by the treatment of the compound of Comparative Example, and the comparison values are shown in Table 1.

Row | SMILES | increase in LC3-II (induction of autophagy), in words | Autophagy-inducing capacity
1 | COc1ccc(-c2ccc(C(=O)NC(C)C)s2)cc1OC [Comparative Example, 5-(3,4-dimethoxyphenyl)-N-isopropylthiophene-2-carboxamide, reference compound] | Hep3B cells induce autophagy | 1.00
2 | COc1cc(-c2ccc(C(=O)NC(C)C)s2)ccc1O [Example 1, 5-(4-hydroxy-3-methoxyphenyl)-N-isopropylthiophene-2-carboxamide] | – | 1.48
3 | COc1ccc(-c2ccc(C(=O)NC(C)C)s2)cc1O [Example 2, 5-(3-hydroxy-4-methoxyphenyl)-N-isopropylthiophene-2-carboxamide] | – | 1.38
4 | CC(C)NC(=O)c1ccc(-c2cccc(O)c2)s1 [Example 4, 5-(3-hydroxyphenyl)-N-isopropylthiophene-2-carboxamide] | – | 1.16
5 | CC(C)NC(=O)c1ccc(-c2ccc(O)cc2)s1 [Example 5, 5-(4-hydroxyphenyl)-N-isopropylthiophene-2-carboxamide] | – | 1.80
6 | CC(C)NC(=O)c1ccc(-c2cccnc2)s1 [Example 7, N-isopropyl-5-(pyridin-3-yl)thiophene-2-carboxamide] | – | 1.24
7 | CC(C)NC(=O)c1ccc(-c2ccc3[nH]ccc3c2)s1 [Example 11, 5-(1H-indol-5-yl)-N-isopropylthiophene-2-carboxamide] | – | 2.13
8 | COc1ccc(-c2ccc(C(=O)NC(C)C)s2)c(OC)n1 [Example 12, 5-(2,6-dimethoxypyridin-3-yl)-N-isopropylthiophene-2-carboxamide] | – | 1.19
9 | COc1cc(-c2ccc(C(=O)NC(C)C)s2)cnc1N [Example 14, 5-(6-amino-5-methoxypyridin-3-yl)-N-isopropylthiophene-2-carboxamide] | – | 1.13
10 | CC(C)NC(=O)c1ccc(-c2cncc3ccccc23)s1 [Example 15, N-isopropyl-5-(isoquinolin-4-yl)thiophene-2-carboxamide] | – | 1.50
11 | CC(C)NC(=O)c1ccc(-c2cnc3ccccc3c2)s1 [Example 17, N-isopropyl-5-(quinolin-3-yl)thiophene-2-carboxamide] | – | 1.99
12 | CC(C)NC(=O)c1ccc(-c2cccc(N)c2)s1 [Example 18, 5-(3-aminophenyl)-N-isopropylthiophene-2-carboxamide] | – | 1.13
13 | CC(C)NC(=O)c1ccc(-c2ccc(F)c(F)c2)s1 [Example 27, 5-(3,4-difluorophenyl)-N-isopropylthiophene-2-carboxamide] | – | 1.01
14 | Cc1cc(C)cc(-c2ccc(C(=O)NC(C)C)s2)c1 [Example 28, 5-(3,5-dimethylphenyl)-N-isopropylthiophene-2-carboxamide] | – | 1.60
15 | Cc1cccc(-c2ccc(C(=O)NC(C)C)s2)c1 [Example 30, N-isopropyl-5-m-tolylthiophene-2-carboxamide] | – | 1.02
16 | Cc1ccc(-c2ccc(C(=O)NC(C)C)s2)c(C)c1 [Example 31, 5-(2,4-dimethylphenyl)-N-isopropylthiophene-2-carboxamide] | – | 1.49
17 | Cc1cc(C)cc(-c2ccc(C(=O)Nc3ccccc3)s2)c1 [Example 48, 5-(3,5-dimethylphenyl)-N-phenylthiophene-2-carboxamide] | – | 1.46
18 | O=C(Nc1ccccc1)c1ccc(-c2cccnc2)s1 [Example 49, N-phenyl-5-(pyridin-3-yl)thiophene-2-carboxamide] | – | 1.51
19 | O=C(Nc1cccnc1)c1ccc(-c2cccnc2)o1 [Example 58, N,5-di(pyridin-3-yl)furan-2-carboxamide] | – | 1.10
20 | CC(C)NC(=O)c1ccc(-c2cncc3ccccc23)o1 [Example 65, N-isopropyl-5-(isoquinolin-4-yl)furan-2-carboxamide] | – | 1.66
21 | CC(C)OC(=O)c1ccc(-c2cccnc2)s1 [Example 72, isopropyl 5-(pyridin-3-yl)thiophene-2-carboxylate] | – | 1.08
22 | Cc1cc(C)cc(-c2ccc(C(=O)NC(C)C)o2)c1 [Example 85, 5-(3,5-dimethylphenyl)-N-isopropylfuran-2-carboxamide] | – | 1.09
23 | CCOC(=O)c1ccc(-c2cnc3ccccc3c2)o1 [Example 88, ethyl 5-(quinolin-3-yl)furan-2-carboxylate] | – | 1.02
24 | CCOC(=O)c1ccc(-c2ccc(C#N)cc2)o1 [Example 89, ethyl 5-(4-cyanophenyl)furan-2-carboxylate] | – | 1.64
25 | O=C(Nc1cccnc1)c1ccc(-c2cccc(O)c2)o1 [Example 91, 5-(3-hydroxyphenyl)-N-(pyridin-3-yl)furan-2-carboxamide] | – | 1.33
26 | CCNC(=O)c1cccc(-c2ccc(C(=O)NC(C)C)o2)c1 [Example 92, 5-(3-(ethylcarbamoyl)phenyl)-N-isopropylfuran-2-carboxamide] | – | 1.41
27 | CCNC(=O)c1ccc(-c2ccc(C(=O)NC(C)C)o2)cc1 [Example 93, 5-(4-(ethylcarbamoyl)phenyl)-N-isopropylfuran-2-carboxamide] | – | 1.19
28 | CC(C)NC(=O)c1ccc(-c2ccc(C(=O)NC(C)C)o2)cc1 [Example 94, N-isopropyl-5-(4-(isopropylcarbamoyl)phenyl)furan-2-carboxamide] | – | 1.17
